Measurements as given in US12678428B2, “Synergistic composition for inhibiting vascular calcification” (Celagenex Research (India) Pvt. Ltd., priority 2021, dated 2026).

Columns and labels:
[1] = tested on: Human Keratinocytes cell line (HaCaT); assay: Cytoprotective activity against AGE (methylglyoxal) induced oxidative stress, tryphan blue dye exclusion assay; format: cell-based; conditions: HaCaT cells treated with Methylglyoxal and test substance, 24 h; Metformin 5 mg; Test I 3.5 mg; Test II 0.5 mg; Test III 5 mg + 0.02 mg; Test IV 0.2 mg + 0.2 mg; Test V 3.5 mg + 0.5 mg
Method: (§1) The purpose of this study is to evaluate cytoprotective activity of test substance against advanced glycation end product (AGE) induced oxidative stress in Human Keratinocytes cell line (HaCaT). About 10 mg of the test substance was dissolved separately with 1 mL DMEM-HG supplemented with 2% inactivated FBS to obtain a stock solution of 10 mg/mL concentration and sterilized by 0.22μ syringe filtration. Dilute the stock to desired concentrations for carrying out further studies. HaCaT (Human Keratinocytes cells) was procured from AddexBio, U.S. Stock cells were cultured in DMEM-HG supplemented with 10% inactivated Fetal Bovine Serum (FBS), penicillin (100 IU/mL), streptomycin (100 μg/mL) and amphotericin B (5 μg/mL) in humidified atmosphere of 5% CO2 at 37° C. until confluent. The cells were dissociated with TPVG solution (0.2% trypsin, 0.02% EDTA, 0.05% glucose in PBS). The stock cultures were grown in 25 cm^2 culture flasks and all experiments were carried out in 96 microtitre plates (Tarsons India Pvt. Ltd., Kolkata, India). [table] The monolayer cell culture was trypsinized and the cell count was adjusted to 1.5×10^5 cells/mL using DMEM-HG containing 10% FBS. To each well of the 6 well plates, 2 mL of the diluted cell suspension was added. After 24 hours, when a partial monolayer was formed, supernatant was removed and washed the monolayer once with PBS and 1 mL of different test concentrations and combinations of test substances were added. The plate was then incubated at 37° C. for 24 h in a 5% CO2 atmosphere, and microscopic examination was carried out and observations were noted after 24 hours time. After 24 hours, the media was discarded and cells were trypsinized and pelleted by centrifugation, suspended in 1 mL of fresh media and performed dye exclusion test, i.e., mixed equal volume of cells suspended media and Tryphan blue. Viable and non-viable cells were counted using haemocytometer and values were recorded, and then percentage cell viability was calculated.

[2] = In vitro cytotoxicity by MTT assay in HaCaT cells; format: cell-based; conditions: human, HaCaT keratinocyte cells
Method: The in vitro cytotoxicity was performed on Human Keratinocytes (HaCaT) cell line to find the non-toxic concentrations of the test substances by MTT assay and evaluate their cytoprotective activity against advanced glycation end product (AGE) induced oxidative stress in Human Keratinocytes.
About 10 mg of the test substance was dissolved separately with 1 mL DMEM-HG supplemented with 2% inactivated FBS to obtain a stock solution of 10 mg/mL concentration and sterilized by 0.22μ syringe filtration. Dilute the stock to desired concentrations for carrying out further studies.
HaCaT (Human Keratinocytes cells) was procured from AddexBio, U.S. Stock cells were cultured in DMEM-HG supplemented with 10% inactivated Fetal Bovine Serum (FBS), penicillin (100 IU/mL), streptomycin (100 μg/mL) and amphotericin B (5 μg/mL) in humidified atmosphere of 5% CO2 at 37° C. until confluent. The cells were dissociated with TPVG solution (0.2% trypsin, 0.02% EDTA, 0.05% glucose in PBS). The stock cultures were grown in 25 cm^2 culture flasks and all experiments were carried out in 96 microtitre plates (Tarsons India Pvt. Ltd., Kolkata, India).
The cell culture monolayer was trypsinized and the cell count was adjusted to 1.0×10^5 cells/mL using DMEM-HG containing 10% FBS. To each well of the 96 well microtitre plate, 0.1 mL of the diluted cell suspension was added. After 24 hours, when a partial monolayer was formed, the supernatant was flicked off, the monolayer was washed once with PBS and 100 μL of different concentrations of test substance was added. The plate was then incubated at 37° C. for 24 hours in a 5% CO2 atmosphere, and microscopic examination was carried out and observations were noted after 24 h time.
After 24 hours of incubation, the drug solution in the wells was discarded and 50 μL of MTT in DPBS was added to each well. The plate was gently shaken and incubated for 3 hours at 37° C. in a 5% CO2 atmosphere. The supernatant was removed and 100 μL of DMSO was added and the plate was gently shaken to solubilize the formed formazan. The absorbance was measured using a micro plate reader at a wavelength of 570 nm. The percentage growth inhibition was calculated using the standard formula. The concentration of test substance, needed to inhibit the growth of the cell by 50% i.e., CTC50 values were generated from the dose-response curves.

[3] = Cytoprotective activity against AGE (methylglyoxal) induced oxidative stress, tryphan blue dye exclusion assay; format: cell-based, Human; conditions: human, HaCaT keratinocyte cells, HaCaT cells treated only with Methylglyoxal 300 μM (positive control)
Method: as §1

In the case of `Cc1ncc(CO)c(CN)c1O` [2-methyl-4-aminomethyl-5-hydroxymethyl-3-Pyridinol], the “% Viability” value [1] was 41.23%, the cytotoxicity at 24 h, 0.125 mg/mL ([2]; test concentration 0.125 mg/mL) was 4.55% and the cytotoxicity at 24 h, 0.25 mg/mL ([2]; test concentration 0.25 mg/mL) was 5.68%. For the same compound, the cytotoxicity at 24 h, 0.5 mg/mL ([2]; test concentration 0.5 mg/mL) was 25.6%, the cytotoxicity at 24 h, 1 mg/mL ([2]; test concentration 1 mg/mL) was 63.4% and the cytotoxicity at 24 h, 2 mg/mL ([2]; test concentration 2 mg/mL) was 67%. It also gave a cytotoxicity at 24 h, 3 mg/mL ([2]; test concentration 3 mg/mL) of 67.5%, a cytotoxicity at 24 h, 4 mg/mL ([2]; test concentration 4 mg/mL) of 75.8% and a cytotoxicity at 24 h, 5 mg/mL ([2]; test concentration 5 mg/mL) of 76%.

For `CC(=O)NCCS(=O)(=O)O.[Mg]` [Test I, Magnesium 2-acetylamino ethane sulfonic acid], the “% Viability” value [1] was 42.39%.

With `CN(C)C(=N)N=C(N)N` [Metformin, reference compound] the “% Viability” value [1] was 70.79%.

For `CC(=O)C=O` [Methylglyoxal, reference compound], the viability at 24 h, 300 μM [3] was roughly 38.8%.
